Experiments:
NLRP3 inflammasome = NLRP3 inflammasome (Homo sapiens, UniProt Q96P20); assay: NLRP3 inflammasome activation in THP1 macrophages (LPS priming, nigericin), IL-1β AlphaLISA; format: cell-based; details: PMA-differentiated THP1, LPS 20 ng/ml 3 hrs, compound 1 hr, Nigericin 6.7 uM 3 hrs, supernatant
IL-6 = IL-6 release from LPS-primed, nigericin-treated THP1 macrophages, Hu IL-6 AlphaLISA; format: cell-based; details: Homo sapiens, THP-1; PMA-differentiated THP1, LPS 20 ng/ml 3 hrs, compound 1 hr, Nigericin 6.7 uM 3 hrs, supernatant

Chain of NLRP3 inflammasome (Q96P20 whole entry): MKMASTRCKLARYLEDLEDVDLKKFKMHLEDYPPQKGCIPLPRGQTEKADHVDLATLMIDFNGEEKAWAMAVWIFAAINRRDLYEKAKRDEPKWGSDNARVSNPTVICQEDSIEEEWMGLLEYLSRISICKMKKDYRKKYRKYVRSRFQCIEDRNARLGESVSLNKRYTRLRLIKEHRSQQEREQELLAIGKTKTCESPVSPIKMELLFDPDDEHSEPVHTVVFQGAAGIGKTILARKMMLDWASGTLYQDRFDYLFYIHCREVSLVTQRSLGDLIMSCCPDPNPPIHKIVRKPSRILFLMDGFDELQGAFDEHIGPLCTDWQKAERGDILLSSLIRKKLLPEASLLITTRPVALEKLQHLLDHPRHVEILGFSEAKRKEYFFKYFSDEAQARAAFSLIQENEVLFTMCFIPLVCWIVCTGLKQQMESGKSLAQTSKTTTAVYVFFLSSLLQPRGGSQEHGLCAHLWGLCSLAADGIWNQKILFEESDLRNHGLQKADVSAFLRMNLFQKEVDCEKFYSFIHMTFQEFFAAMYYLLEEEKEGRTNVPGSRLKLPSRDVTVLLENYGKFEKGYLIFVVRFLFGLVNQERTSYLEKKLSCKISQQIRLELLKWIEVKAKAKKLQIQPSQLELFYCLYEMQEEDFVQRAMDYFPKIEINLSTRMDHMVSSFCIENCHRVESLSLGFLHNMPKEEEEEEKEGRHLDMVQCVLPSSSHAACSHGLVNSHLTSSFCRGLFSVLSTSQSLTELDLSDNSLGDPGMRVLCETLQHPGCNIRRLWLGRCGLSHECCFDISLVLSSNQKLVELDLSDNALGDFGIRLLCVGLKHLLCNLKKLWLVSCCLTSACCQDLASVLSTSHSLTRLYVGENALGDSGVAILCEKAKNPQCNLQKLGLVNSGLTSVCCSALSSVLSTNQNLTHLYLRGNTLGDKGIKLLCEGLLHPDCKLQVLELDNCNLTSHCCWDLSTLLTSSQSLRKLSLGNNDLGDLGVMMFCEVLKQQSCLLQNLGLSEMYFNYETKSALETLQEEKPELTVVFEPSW

Compound	IC50 (NLRP3 inflammasome) [nM]	IC50 (IL-6) [nM]
Cc1cc(N[C@H]2CN(C)CC[C@H]2F)nnc1-c1ccc(C(F)(F)F)cc1 [compound 74, N-((3S,4R)-4-fluoro-1-methylpiperidin-3-yl)-5-methyl-6-(4-(trifluoromethyl)-phenyl)pyridazin-3-amine]	> 1000	> 10000
COc1cc(C(F)(F)F)cc(C)c1-c1ccc(N[C@@H]2CCCN(C)C2)nn1 [compound 75]	> 1000	5000 to 10000
Cc1cc(N[C@@H]2CCCN(C)C2)nnc1-c1ccc(O)c(C)c1C(F)(F)F [compound 76]	> 1000	5000 to 10000
Cc1cc(-c2cccc(Cl)c2)nnc1N[C@@H]1CCCN(C)C1 [compound 77]	> 1000	5000 to 10000
CCc1cccc(-c2cc(C)c(N[C@@H]3CCCN(C)C3)nn2)c1 [compound 78]	> 1000	> 10000
Cc1cc(-c2cccc(C(C)C)c2)nnc1N[C@@H]1CCCN(C)C1 [compound 79]	> 1000	> 10000
Cc1cc(-c2ccc(C#N)cc2)nnc1N[C@@H]1CCCN(C)C1 [compound 80]	> 1000	> 10000
Cc1cc(-c2ccc(OC(F)(F)F)cc2)nnc1N[C@@H]1CCCN(C)C1 [compound 81]	> 1000	> 10000
Cc1ccc(-c2cc(C)c(N[C@@H]3CCCN(C)C3)nn2)cc1 [compound 82]	> 1000	> 10000
CN1CCC[C@@H](Nc2ccc(-c3ccccc3)nn2)C1 [compound 84]	> 1000	> 10000
Cc1ccccc1-c1ccc(N[C@@H]2CCCN(C)C2)nn1 [compound 85]	> 1000	> 10000
Cc1ccccc1-c1nnc(N[C@@H]2CCCN(C)C2)cc1C [compound 87]	> 1000	> 10000
Cc1cc(-c2ccc(C(F)(F)F)cc2)nnc1N[C@H]1CN(C)CC[C@H]1F [compound 88]	> 1000	> 10000
Cc1cc(N[C@@H]2CCCN(C)C2)nnc1-c1ccccc1C#N [compound 89]	> 1000	> 10000
Cc1cc(-c2ccccc2C#N)nnc1N[C@@H]1CCCN(C)C1 [compound 90]	> 1000	> 10000
Cc1ccc(-c2cc(C(F)(F)F)c(N[C@@H]3CCCN(C)C3)nn2)cc1 [compound 91]	> 1000	> 10000
Cc1cccc(-c2cc(C)c(N[C@@H]3CCCN(C)C3)nn2)c1 [compound 92]	> 1000	> 10000
Cc1cc(N[C@@H]2CCCN(C)C2)nnc1-c1ccc(C2CC2)cc1 [compound 93]	10 to 50	> 10000
Cc1cc(-c2ccc(C3CC3)cc2)nnc1N[C@@H]1CCCN(C)C1 [compound 94]	> 1000	> 10000
Cc1cc(-c2ccc(C3CCC3)cc2)nnc1N[C@@H]1CCCN(C)C1 [compound 95]	> 1000	5000 to 10000
Cc1cc(N[C@@H]2CCCN(C)C2)nnc1-c1ccc(F)cc1C#N [compound 96]	> 1000	> 10000
Cc1cc(-c2ccc(F)cc2C#N)nnc1N[C@@H]1CCCN(C)C1 [compound 97]	> 1000	> 10000
Cc1cc(-c2ccc(F)cc2F)nnc1N[C@@H]1CCCN(C)C1 [compound 98]	> 1000	> 10000

Compound	IC50 (NLRP3 inflammasome) [nM]	IC50 (IL-6) [nM]
Cc1cc(-c2nnc(N[C@@H]3CCCN(C)C3)cc2C)ccc1C(F)(F)F [compound 99]	500 to 1000	> 10000
Cc1cc(-c2cc(C)c(N[C@@H]3CCCN(C)C3)nn2)ccc1C(F)(F)F [compound 100]	> 1000	> 10000
COc1cc(N[C@@H]2CCCN(C)C2)nnc1-c1ccc(C(F)(F)F)cc1 [compound 101]	> 1000	> 10000
COc1cc(-c2ccc(C(F)(F)F)cc2)nnc1N[C@@H]1CCCN(C)C1 [compound 102]	> 1000	> 10000
CN1CCC[C@@H](Nc2nnc(-c3ccc(C(F)(F)F)cc3)cc2C#N)C1 [compound 103]	> 1000	> 10000
Cc1cc(N[C@@H]2CCCN(C)C2)nnc1-c1ccc(O)cc1 [compound 104]	> 1000	> 10000
Cc1cc(-c2ccc(C(F)(F)F)c(Cl)c2)nnc1N[C@@H]1CCCN(C)C1 [compound 105]	> 1000	> 10000
Cc1cc(-c2ccc(N[C@@H]3CCCN(C)C3)nn2)cc(C)c1F [compound 106]	> 1000	> 10000
Cc1cc(-c2cc(C)c(F)c(C)c2)nnc1N[C@@H]1CCCN(C)C1 [compound 107]	> 1000	> 10000
Cc1cc(N[C@@H]2CCCN(C)C2)nnc1-c1ccc(F)c(C#N)c1 [compound 108]	> 1000	> 10000
Cc1cc(-c2ccc(F)c(C#N)c2)nnc1N[C@@H]1CCCN(C)C1 [compound 109]	> 1000	> 10000
Cc1cc(F)cc(C)c1-c1ccc(N[C@@H]2CCCN(C)C2)nn1 [compound 110]	> 1000	5000 to 10000
CN1CCC[C@@H](Nc2nnc(-c3ccc(C(F)(F)F)cc3)cc2C(F)(F)F)C1 [compound 111]	> 1000	> 10000
Cc1cc(-c2cc(C)c(N[C@@H]3CCCN(C)C3)nn2)ccc1F [compound 112]	> 1000	> 10000
Cc1cc(-c2ccc(C(F)(F)F)c(C#N)c2)nnc1N[C@@H]1CCCN(C)C1 [compound 113]	> 1000	> 10000
Cc1cc(N[C@@H]2CCCN(CC(F)(F)F)C2)nnc1-c1ccc(C(F)(F)F)cc1 [compound 114]	> 1000	> 10000
Cc1cc(N[C@@H]2CCCN(CC(F)(F)F)C2)nnc1-c1ccc(F)cc1 [compound 115]	> 1000	5000 to 10000
Cc1cc(N[C@@H]2CCCN(CC(F)F)C2)nnc1-c1ccc(F)cc1 [compound 116]	> 1000	> 10000
Cc1cc(-c2ccc(F)c(F)c2)nnc1N[C@@H]1CCCN(C)C1 [compound 117]	> 1000	> 10000
Cc1cc(N[C@H]2CCCN(C)C2)nnc1-c1ccc(C(F)(F)F)cc1 [compound 118]	> 1000	> 10000
Cc1cc(N[C@H]2CN(C)CC(F)(F)C2)nnc1-c1ccc(F)cc1 [compound 119]	> 1000	> 10000
Cc1cc(N[C@@H]2CCCN(C3CC3)C2)nnc1-c1ccc(F)cc1 [compound 120]	50 to 100	> 10000
Cc1cc(N[C@H]2CN(C)CC[C@H]2F)nnc1-c1ccc(F)cc1 [compound 121]	100 to 500	> 10000

Compound	IC50 (NLRP3 inflammasome) [nM]	IC50 (IL-6) [nM]
CCN1CCC[C@@H](Nc2cc(C)c(-c3ccc(F)cc3)nn2)C1 [compound 122]	10 to 50	> 10000
Cc1cc(Cl)ccc1-c1nnc(N[C@@H]2CCCN(C)C2)cc1C [compound 123]	≤ 10	> 10000
Cc1cc(Cl)ccc1-c1cc(C)c(N[C@@H]2CCCN(C)C2)nn1 [compound 124]	10 to 50	5000 to 10000
Cc1cc(Cl)ccc1-c1ccc(N[C@@H]2CCCN(C)C2)nn1 [compound 125]	50 to 100	> 10000
CN1CCC[C@@H](Nc2ccc(-c3ccc(F)cc3)nn2)C1 [compound 126]	> 1000	> 10000
Cc1cc(N[C@@H]2CCCN(C)C2)nnc1-c1ccc(Cl)cc1 [compound 127]	≤ 10	> 10000
Cc1cc(-c2ccc(Cl)cc2)nnc1N[C@@H]1CCCN(C)C1 [compound 128]	100 to 500	> 10000
CN1CCC[C@@H](Nc2ccc(-c3ccc(Cl)cc3)nn2)C1 [compound 129]	50 to 100	> 10000
CN1CCC[C@@H](Nc2ccc(-c3ccc(F)cc3C(F)(F)F)nn2)C1 [compound 130]	10 to 50	5000 to 10000
Cc1cc(N[C@H]2CCCN(C(C)C)C2)nnc1-c1ccc(C(F)(F)F)cc1 [compound 131]	500 to 1000	> 10000
Cc1cc(F)ccc1-c1nnc(N[C@@H]2CCCN(C)C2)cc1C [compound 132]	10 to 50	> 10000
Cc1cc(F)ccc1-c1cc(C)c(N[C@@H]2CCCN(C)C2)nn1 [compound 133]	10 to 50	> 10000
Cc1cc(F)ccc1-c1ccc(N[C@@H]2CCCN(C)C2)nn1 [compound 134]	100 to 500	> 10000
Cc1cc(N[C@@H]2CCCN(C(C)C)C2)nnc1-c1ccc(F)cc1 [compound 135]	10 to 50	> 10000
Cc1cc(N[C@H]2CN(C)CC[C@@H]2F)nnc1-c1ccc(C(F)(F)F)cc1 [compound 136]	50 to 100	5000 to 10000
Cc1cc(N[C@@H]2C[C@H](F)CN(C)C2)nnc1-c1ccc(C(F)(F)F)cc1 [compound 137]	100 to 500	> 10000
Cc1cc(N[C@H]2CN(C)CC[C@@H]2F)nnc1-c1ccc(F)cc1 [compound 138]	> 1000	> 10000
Cc1cc(N[C@@H]2C[C@H](F)CN(C)C2)nnc1-c1ccc(F)cc1 [compound 139]	500 to 1000	5000 to 10000
Cc1cc(N[C@@H]2C[C@@H](F)CN(C)C2)nnc1-c1ccc(F)cc1 [compound 140]	> 1000	> 10000
Cc1cc(C(F)(F)F)c(C)cc1-c1ccc(N[C@@H]2CCCN(C)C2)nn1 [compound 141]	> 1000	> 10000
Cc1cc(N(C)[C@@H]2CCCN(C)C2)nnc1-c1ccc(C(F)(F)F)cc1 [compound 142, (R)—N,5-dimethyl-N-(1-methylpiperidin-3-yl)-6-(4-(trifluoromethyl)phenyl)pyridazin-3-amine]	100 to 500	1000 to 5000
CN1CCC[C@@H](Nc2cc(F)c(-c3ccc(C(F)(F)F)cc3)nn2)C1 [compound 143]	10 to 50	> 10000
Cc1cc(N[C@@H]2C[C@@H](F)CN(C(C)C)C2)nnc1-c1ccc(C(F)(F)F)cc1 [compound 144]	100 to 500	5000 to 10000

Reference: patent US20250074888A1, “PYRIDAZINE DERIVATIVES AS MODULATORS OF NLRP3 INFLAMMASOME AND RELATED METHODS” (Neumora Therapeutics, Inc., priority 2021, published 2025)
